Test results from ChEMBL document CHEMBL3886724, “Oxazolidinone compounds and derivatives thereof” (2016).

These compounds were tested against T1, Poly [ADP-ribose] polymerase tankyrase-1 (Homo sapiens, UniProt O95271) (assay: Tankyrase Biochemical Assays: The tankyrase 1 biochemical activity of the compounds was assayed in the following assay buffer (50 mM MOPS pH7.5, 100 mM NaCl, […] MgCl2, 0.01% Tween-20, 0.05% BSA, and 1 mM DTT) as follows: […] of 6×HIS-tankyrase 1 (1091-1325) was incubated in the presence of compound (DMSO […] final) in a Perkin Elmer 384 well Proxiplate Plus™ (cat. no. 6008289) with 400 n).
T1 sequence (O95271 whole entry): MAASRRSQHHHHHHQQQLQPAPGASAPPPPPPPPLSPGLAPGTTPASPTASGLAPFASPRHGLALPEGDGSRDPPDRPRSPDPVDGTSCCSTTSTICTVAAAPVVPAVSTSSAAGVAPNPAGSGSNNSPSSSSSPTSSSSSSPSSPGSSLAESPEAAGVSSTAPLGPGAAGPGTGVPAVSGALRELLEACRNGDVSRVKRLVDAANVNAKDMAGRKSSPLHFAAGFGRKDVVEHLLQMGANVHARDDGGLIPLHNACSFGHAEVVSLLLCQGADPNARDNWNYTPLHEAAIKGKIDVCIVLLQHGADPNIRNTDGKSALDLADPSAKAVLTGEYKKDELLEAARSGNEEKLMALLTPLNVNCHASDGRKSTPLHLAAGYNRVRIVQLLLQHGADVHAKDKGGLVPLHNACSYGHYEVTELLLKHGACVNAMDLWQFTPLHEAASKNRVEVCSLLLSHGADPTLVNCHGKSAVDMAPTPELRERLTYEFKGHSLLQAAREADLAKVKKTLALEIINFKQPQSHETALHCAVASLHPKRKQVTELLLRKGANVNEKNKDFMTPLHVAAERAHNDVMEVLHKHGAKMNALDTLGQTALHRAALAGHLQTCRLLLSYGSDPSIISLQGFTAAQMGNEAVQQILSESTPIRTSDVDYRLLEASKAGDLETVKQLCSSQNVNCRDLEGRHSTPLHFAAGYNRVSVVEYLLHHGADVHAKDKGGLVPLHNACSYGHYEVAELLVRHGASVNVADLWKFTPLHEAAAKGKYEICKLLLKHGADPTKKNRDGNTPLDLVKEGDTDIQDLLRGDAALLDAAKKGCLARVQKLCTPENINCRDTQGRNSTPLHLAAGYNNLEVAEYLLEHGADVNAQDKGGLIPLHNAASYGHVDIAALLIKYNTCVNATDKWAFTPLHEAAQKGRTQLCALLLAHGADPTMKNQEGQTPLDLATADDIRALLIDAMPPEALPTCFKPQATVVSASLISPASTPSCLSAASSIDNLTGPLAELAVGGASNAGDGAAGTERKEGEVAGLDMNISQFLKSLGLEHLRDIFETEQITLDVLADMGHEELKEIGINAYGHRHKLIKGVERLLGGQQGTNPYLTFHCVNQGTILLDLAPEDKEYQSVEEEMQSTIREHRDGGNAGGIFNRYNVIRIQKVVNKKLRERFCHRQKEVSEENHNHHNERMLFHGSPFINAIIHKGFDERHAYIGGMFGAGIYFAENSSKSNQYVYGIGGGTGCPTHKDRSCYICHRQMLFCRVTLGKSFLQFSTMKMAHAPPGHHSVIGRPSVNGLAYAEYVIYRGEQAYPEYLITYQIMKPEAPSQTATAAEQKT
`CC1(C)OC(=O)N([C@H]2CC[C@H](NC(=O)c3csc(-c4ccccc4)n3)CC2)[C@H]1c1ccccc1` gave an IC50 of 5.18 nM. For `CC1(C)OC(=O)N([C@H]2CC[C@H](NC(=O)c3ccnc(-c4ccccc4)n3)CC2)[C@H]1c1ccccc1`, the IC50 was 11.4 nM. `CC1(C)OC(=O)N(c2ccc(-c3cc(-c4ncco4)c[nH]c3=O)cc2)[C@H]1c1ccccc1` was tested, and the IC50 was 167 nM.
